Measured values from US11236078B2, “Heterocyclic inhibitors of the sodium channel” (priority 2014, dated 2022).

Key:
Type in all cases: cell-based
human Nav1.7 (hNav1.7) [1] = molecular target: T1, human Nav1.7 (hNav1.7) (Homo sapiens, UniProt Q15858); assay: hNav1.7 slow inactivation block, manual patchclamp; details: HEK 293F cells stably expressing hNav1.7, slow inactivation induced in approximately 50% of channels
T1 construct: expressed in transfected cells
Excerpt: (§1) The generation of HEK 293F cell lines stably expressing human Nav1.7 (h Nav1.7), human Nav1.5 (hNav1.5) and rat Nav1.2 (r Nav1.2) was achieved by subcloning SCN9A, SCN5A, and SCN2A genes into inducible expression vectors followed by transfection into target cells using standard techniques. In the case of h Nav1.7, an expression vector encoding the human Navβ1 auxiliary subunit gene, SCN1B, was co-transfected with the expression vector bearing the SCN9A gene. Clones were selected using appropriate selection agents (0.3 mg/mL Zeocin and 0.8 mg/mL Geneticin) and maintained in Dulbecco's Modified Eagle medium, 10% fetal bovine serum, 1% non-essential amino acids to ˜80% confluence at 37° C. in a humidified incubator with 95% atmosphere and 5% CO2.
(§2) On the day of each experiment, cells that were grown to 80% confluence in a T75 flask were harvested for use on PatchXpress (Molecular Devices, CA, USA). Following a recovery period at 37° C. in a humidified incubator with 95% atmosphere and 5% CO2 in Dulbecco's Modified Eagle Medium, the media was replaced with an external recording solution containing (in mM): 90 TEACl, 50 NaCl, 1.8 CaCl2, 1 MgCl2, 10 HEPES, 10 glucose, adjusted to pH 7.4 with TEAOH and 300 mOsm with sucrose. The internal recording solution contained (in mM): 129 CsF, 2 MgCl2, 11 EGTA, 10 HEPES, 6 NaCl, 3 Na2ATP adjusted to pH 7.2 with CsOH and 280 mOsm with sucrose. The automated liquid handling facility of PatchXpress dispensed cells and added compound. Modulation of Nav1.7 channels by compounds was assessed by promoting the channels into the inactivated state using a conditioning voltage pulse of variable amplitude, followed by a brief hyperpolarizing pulse with a subsequent depolarized voltage step to measure the current amplitude in the presence and absence of compound.
(§3) In some cases, the potency of compounds was measured using either the Patchliner automated patch clamp platform (Nanion) or manual patch clamp techniques. Both approaches allowed the compounds to be characterized based upon the ability of a compound to modulate use- and/or state-dependence across human Nav1.7 (hNav1.7), human Nav1.5 (hNav1.5) and rat Nav1.2 (rNav1.2). The potency data is tabulated in Table 2 and is represented by six data fields. Three of the six fields represent potency data measured with the Patchliner automated platform under varying use- and state-dependent electrophysiology protocols similar to the PatchXpress protocols detailed above. For example, the second data column describes the potency of compounds in their ability to block 50% of Nav1.7 channels when the channel is repetitively activated by depolarizing voltage potentials to induce slow inactivation in approximately 50% of channels (Table 2: h Nav1.7: IC50 Slow Inactivation Block, Automated Patchclamp). The next three data fields describe the data generated from manual patchclamp electrophysiology measurements using similar methods to those employed for automated patchclamp studies.

human Nav1.7 (hNav1.7) [2] = molecular target: T1, human Nav1.7 (hNav1.7); assay: hNav1.7 slow inactivation block, automated patchclamp; details: HEK 293F cells stably expressing hNav1.7, slow inactivation induced in approximately 50% of channels
Excerpt: as §1, §2, §3

rat Nav1.2 (rNav1.2) [3] = molecular target: T2, rat Nav1.2 (rNav1.2) (Rattus norvegicus, UniProt P04775); assay: rNav1.2 slow inactivation block, manual patchclamp; details: HEK 293F cells stably expressing rNav1.2
T2 construct: expressed in transfected cells
Excerpt: as §1, §2, §3

rat Nav1.2 (rNav1.2) [4] = molecular target: T2, rat Nav1.2 (rNav1.2); assay: rNav1.2 slow inactivation block, automated patchclamp; details: HEK 293F cells stably expressing rNav1.2
Excerpt: as §1, §2, §3

human Nav1.5 (hNav1.5) [5] = molecular target: T3, human Nav1.5 (hNav1.5) (Homo sapiens, UniProt Q14524); assay: hNav1.5 slow inactivation block, manual patchclamp; details: HEK 293F cells stably expressing hNav1.5
T3 construct: expressed in transfected cells
Excerpt: as §1, with “CO2. […]” for “CO2.”
as §2, §3

human Nav1.5 (hNav1.5) [6] = molecular target: T3, human Nav1.5 (hNav1.5); assay: hNav1.5 slow inactivation block, automated patchclamp; details: HEK 293F cells stably expressing hNav1.5
Excerpt: as §1
Inhibition of the TTX-resistant Nav1.5 sodium channel, a key cardiac ion channel, can have profound effects on the duration and amplitude of the cardiac action potential and can result in arrhythmias and other heart malfunctions. To assess the potential cardiac liability of compounds at an early stage in the drug discovery process, a Nav1.5 sodium channel screening assay can be performed on Molecular Device's PatchXpress™ automated electrophysiology platform. Under voltage-clamp conditions, Nav1.5 currents can be recorded from HEK cells expressing the human Nav1.5 channel in the absence and presence of increasing concentrations of the test compound to obtain an IC50 value. The external recording solution can contain (in mM): 90 TEACl, 50 NaCl, 1.8 CaCl, 1 MgCl2, 10 HEPES, 10 glucose, adjusted to pH 7.4 with TEA-OH and to 300 mOsm with sucrose (if necessary), while the internal patch pipette solution contained (in mM): 129 CsF, 2 MgCl2, 11 EGTA, 10 HEPES, 3 Na2ATP adjusted to pH 7.2 with CsOH and to 290 mOsm with sucrose (if necessary). Nav1.5 channel currents can be evoked using a cardiac action potential waveform at 1 Hz, digitized at 31.25 kHz and low-pass filtered at 12 kHz.
as §2
In some cases, the potency of compounds was measured using either the Patchliner automated patch clamp platform (Nanion) or manual patch clamp techniques. Both approaches allowed the compounds to be characterized based upon the ability of a compound to modulate use- and/or state-dependence across human Nav1.7 (hNav1.7), human Nav1.5 (hNav1.5) and rat Nav1.2 (rNav1.2). The potency data is tabulated in Table 2 and is represented by six data fields. Three of the six fields represent potency data measured with the Patchliner automated platform under varying use- and state-dependent electrophysiology protocols similar to the PatchXpress protocols detailed above. […]

T3 sequence (Q14524 whole entry): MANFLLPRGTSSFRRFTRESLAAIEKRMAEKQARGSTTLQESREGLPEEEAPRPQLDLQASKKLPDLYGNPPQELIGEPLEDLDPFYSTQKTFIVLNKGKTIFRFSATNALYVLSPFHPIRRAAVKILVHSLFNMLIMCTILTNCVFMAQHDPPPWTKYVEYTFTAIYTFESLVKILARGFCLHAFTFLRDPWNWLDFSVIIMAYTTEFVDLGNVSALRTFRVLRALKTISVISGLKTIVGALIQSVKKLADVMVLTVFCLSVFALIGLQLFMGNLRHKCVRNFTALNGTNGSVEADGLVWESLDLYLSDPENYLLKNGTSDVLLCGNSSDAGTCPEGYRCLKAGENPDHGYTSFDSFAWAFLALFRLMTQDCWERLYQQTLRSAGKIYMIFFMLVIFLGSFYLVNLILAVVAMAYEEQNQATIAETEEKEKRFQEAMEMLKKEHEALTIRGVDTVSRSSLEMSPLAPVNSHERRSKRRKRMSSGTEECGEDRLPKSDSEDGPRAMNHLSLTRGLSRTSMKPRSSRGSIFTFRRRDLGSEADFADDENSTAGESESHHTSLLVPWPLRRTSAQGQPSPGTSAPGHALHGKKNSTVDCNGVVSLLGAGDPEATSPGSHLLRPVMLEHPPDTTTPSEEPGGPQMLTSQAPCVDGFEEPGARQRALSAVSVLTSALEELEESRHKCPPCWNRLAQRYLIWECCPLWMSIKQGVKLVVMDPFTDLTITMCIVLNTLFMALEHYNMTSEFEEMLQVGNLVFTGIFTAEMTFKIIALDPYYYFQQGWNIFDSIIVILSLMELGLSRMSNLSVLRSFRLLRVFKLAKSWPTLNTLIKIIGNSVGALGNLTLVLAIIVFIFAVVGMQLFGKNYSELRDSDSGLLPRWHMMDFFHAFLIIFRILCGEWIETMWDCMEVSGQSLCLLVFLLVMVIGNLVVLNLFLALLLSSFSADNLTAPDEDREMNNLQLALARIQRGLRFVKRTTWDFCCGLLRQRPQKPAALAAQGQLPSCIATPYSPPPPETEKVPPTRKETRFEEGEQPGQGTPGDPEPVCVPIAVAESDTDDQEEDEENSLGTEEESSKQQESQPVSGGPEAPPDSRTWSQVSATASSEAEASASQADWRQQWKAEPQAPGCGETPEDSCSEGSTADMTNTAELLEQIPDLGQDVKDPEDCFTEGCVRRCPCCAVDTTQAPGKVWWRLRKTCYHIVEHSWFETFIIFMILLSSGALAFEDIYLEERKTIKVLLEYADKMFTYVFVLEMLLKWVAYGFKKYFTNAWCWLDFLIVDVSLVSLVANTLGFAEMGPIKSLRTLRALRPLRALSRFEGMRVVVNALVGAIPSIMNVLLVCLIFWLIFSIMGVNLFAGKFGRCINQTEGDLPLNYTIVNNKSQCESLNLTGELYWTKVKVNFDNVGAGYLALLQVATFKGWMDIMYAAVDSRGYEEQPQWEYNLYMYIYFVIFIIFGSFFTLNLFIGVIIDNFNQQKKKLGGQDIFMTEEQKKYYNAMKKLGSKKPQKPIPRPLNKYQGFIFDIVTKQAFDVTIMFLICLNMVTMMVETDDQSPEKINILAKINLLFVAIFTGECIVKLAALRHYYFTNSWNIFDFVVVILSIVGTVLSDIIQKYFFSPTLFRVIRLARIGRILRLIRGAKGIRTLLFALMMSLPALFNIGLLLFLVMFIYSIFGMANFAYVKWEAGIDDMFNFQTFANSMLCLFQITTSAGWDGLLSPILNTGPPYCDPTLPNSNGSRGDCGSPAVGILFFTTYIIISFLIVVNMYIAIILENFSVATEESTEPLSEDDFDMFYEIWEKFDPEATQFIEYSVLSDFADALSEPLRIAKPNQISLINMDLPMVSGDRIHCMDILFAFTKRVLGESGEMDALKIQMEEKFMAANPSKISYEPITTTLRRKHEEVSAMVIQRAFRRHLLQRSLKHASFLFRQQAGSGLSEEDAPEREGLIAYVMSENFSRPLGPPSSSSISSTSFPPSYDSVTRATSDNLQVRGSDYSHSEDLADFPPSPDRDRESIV
T2 sequence (P04775 whole entry): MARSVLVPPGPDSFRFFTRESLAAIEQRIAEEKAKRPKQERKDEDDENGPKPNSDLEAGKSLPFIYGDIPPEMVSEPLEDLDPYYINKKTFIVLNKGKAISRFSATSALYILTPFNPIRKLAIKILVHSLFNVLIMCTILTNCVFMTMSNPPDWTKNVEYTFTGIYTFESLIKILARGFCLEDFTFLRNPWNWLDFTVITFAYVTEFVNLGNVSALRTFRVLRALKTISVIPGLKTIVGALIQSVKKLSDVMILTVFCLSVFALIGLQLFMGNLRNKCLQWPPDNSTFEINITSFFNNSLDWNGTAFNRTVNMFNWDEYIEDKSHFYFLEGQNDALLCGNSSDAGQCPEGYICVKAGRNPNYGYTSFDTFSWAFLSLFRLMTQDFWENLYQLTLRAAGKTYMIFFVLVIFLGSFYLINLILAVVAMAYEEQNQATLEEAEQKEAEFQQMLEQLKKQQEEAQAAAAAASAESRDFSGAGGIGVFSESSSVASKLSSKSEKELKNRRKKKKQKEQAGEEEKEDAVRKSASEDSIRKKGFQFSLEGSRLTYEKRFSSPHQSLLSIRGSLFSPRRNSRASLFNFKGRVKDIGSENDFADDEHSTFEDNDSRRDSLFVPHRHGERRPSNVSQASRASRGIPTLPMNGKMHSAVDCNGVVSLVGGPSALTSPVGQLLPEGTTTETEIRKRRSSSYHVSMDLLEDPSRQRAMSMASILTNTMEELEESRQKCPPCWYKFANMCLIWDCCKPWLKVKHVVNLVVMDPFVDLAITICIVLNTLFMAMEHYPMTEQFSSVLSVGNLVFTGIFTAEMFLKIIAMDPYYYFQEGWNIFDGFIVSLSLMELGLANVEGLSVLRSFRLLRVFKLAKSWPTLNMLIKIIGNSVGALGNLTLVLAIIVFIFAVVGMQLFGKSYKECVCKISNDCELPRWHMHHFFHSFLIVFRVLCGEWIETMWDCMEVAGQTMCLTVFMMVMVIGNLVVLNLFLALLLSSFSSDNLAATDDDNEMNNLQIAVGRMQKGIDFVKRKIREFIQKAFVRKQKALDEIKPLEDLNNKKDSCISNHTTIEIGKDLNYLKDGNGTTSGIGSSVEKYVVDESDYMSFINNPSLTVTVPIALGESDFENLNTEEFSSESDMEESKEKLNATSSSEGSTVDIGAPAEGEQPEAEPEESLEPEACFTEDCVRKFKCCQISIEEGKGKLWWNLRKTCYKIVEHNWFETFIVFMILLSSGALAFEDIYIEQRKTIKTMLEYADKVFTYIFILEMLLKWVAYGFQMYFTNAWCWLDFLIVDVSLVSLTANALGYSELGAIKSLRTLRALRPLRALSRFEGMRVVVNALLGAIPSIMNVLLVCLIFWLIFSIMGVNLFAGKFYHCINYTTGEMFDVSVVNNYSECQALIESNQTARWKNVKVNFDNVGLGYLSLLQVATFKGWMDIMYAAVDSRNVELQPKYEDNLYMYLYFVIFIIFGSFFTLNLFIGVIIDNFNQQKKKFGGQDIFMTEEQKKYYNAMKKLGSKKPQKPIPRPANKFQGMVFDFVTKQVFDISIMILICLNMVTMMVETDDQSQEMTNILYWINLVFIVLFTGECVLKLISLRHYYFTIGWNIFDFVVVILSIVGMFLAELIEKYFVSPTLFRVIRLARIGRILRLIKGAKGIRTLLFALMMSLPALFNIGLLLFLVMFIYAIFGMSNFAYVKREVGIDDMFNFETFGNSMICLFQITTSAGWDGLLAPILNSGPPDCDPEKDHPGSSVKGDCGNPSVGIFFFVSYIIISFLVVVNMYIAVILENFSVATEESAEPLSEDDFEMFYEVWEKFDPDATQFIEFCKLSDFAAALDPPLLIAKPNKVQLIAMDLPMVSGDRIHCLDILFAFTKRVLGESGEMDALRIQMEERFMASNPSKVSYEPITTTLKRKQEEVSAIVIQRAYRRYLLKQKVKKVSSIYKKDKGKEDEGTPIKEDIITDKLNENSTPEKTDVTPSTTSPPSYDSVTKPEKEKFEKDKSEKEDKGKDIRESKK

IC50 (human Nav1.7 (hNav1.7) [1]) [nM] | IC50 (human Nav1.7 (hNav1.7) [2]) [nM] | IC50 (rat Nav1.2 (rNav1.2) [3]) [nM] | IC50 (rat Nav1.2 (rNav1.2) [4]) [nM] | SMILES | IC50 (human Nav1.5 (hNav1.5) [5]) [nM] | IC50 (human Nav1.5 (hNav1.5) [6]) [nM]
217 | 977 | 146 | 1870 | O=C(NCc1cc(F)c(Oc2cc(C(F)(F)F)cc(C(F)(F)F)c2)cc1F)[C@@H]1CCCN1 [Compound 4, (2S)-N-({4-[3,5-bis(trifluoromethyl)phenoxy]-2,5-difluorophenyl}methyl)pyrrolidine-2-carboxamide] | 116 | 
470 | 8430 | 479 | 18700 | O=C(NCc1cc(F)c(Oc2cc(C(F)(F)F)cc(C(F)(F)F)c2)cc1F)c1ncns1 [Compound 17, N-({4-[3,5-bis(trifluoromethyl)phenoxy]-2,5-difluorophenyl}methyl)-1,2,4-thiadiazole-5-carboxamide] | ~2500 | 
678 | 14600 | > 32000 | > 32000 | O=S(=O)(Nc1ncns1)c1cc(F)c(Oc2cc(F)cc(Cl)c2)cc1F [Compound 29, 4-(3-chloro-5-fluorophenoxy)-2,5-difluoro-N-(1,2,4-thiadiazol-5-yl)benzene-1-sulfonamide] | ~7570 | 
286 | 750 | 387 | ~1220 | O=S(=O)(Nc1ncns1)c1cc(F)c(Oc2cc(C3CNC3)cc(C(F)(F)F)c2)cc1F [Compound 31, 4-(3-(azetidin-3-yl)-5-(trifluoromethyl)phenoxy)-2,5-difluoro-N-(1,2,4-thiadiazol-5-yl)benzenesulfonamide] | ~1460 | 
> 3200 | > 32000 |  |  | COc1cc(Oc2cc(F)c(S(=O)(=O)Nc3nc(C)ns3)cc2F)cc(C(F)(F)F)c1 [Compound 40, 2,5-difluoro-4-[3-methoxy-5-(trifluoromethyl)phenoxy]-N-(3-methyl-1,2,4-thiadiazol-5-yl)benzene-1-sulfonamide] |  | > 32000
> 3200 | > 32000 |  |  | COc1cc(Oc2cc(F)c(S(=O)(=O)Nc3nc(Cc4ccccc4)ns3)cc2F)cc(C(F)(F)F)c1 [Compound 41, N-(3-benzyl-1,2,4-thiadiazol-5-yl)-2,5-difluoro-4-[3-methoxy-5-(trifluoromethyl)phenoxy]benzene-1-sulfonamide] |  | > 32000
> 10000 | > 32000 |  |  | COc1cc(Oc2cc(F)c(S(=O)(=O)Nc3nc(CN4CCOCC4)ns3)cc2F)cc(C(F)(F)F)c1 [Compound 45, 2,5-difluoro-4-[3-methoxy-5-(trifluoromethyl)phenoxy]-N-[3-(morpholin-4-ylmethyl)-1,2,4-thiadiazol-5-yl]benzene-1-sulfonamide] |  | > 32000
142 | ~3060 |  |  | O=S(=O)(Nc1ncns1)c1cc(F)c(Oc2cc(N3CCC3)cc(C(F)(F)F)c2)cc1F [Compound 48, 4-[3-(azetidin-1-yl)-5-(trifluoromethyl)phenoxy]-2,5-difluoro-N-(1,2,4-thiadiazol-5-yl)benzenesulfonamide] | ~650 | ~6660
404 | ~7680 |  |  | O=S(=O)(Nc1ncns1)c1cc(F)c(Oc2cc(N3CC(O)C3)cc(C(F)(F)F)c2)cc1F [Compound 49, 2,5-difluoro-4-[3-(3-hydroxyazetidin-1-yl)-5-(trifluoromethyl)phenoxy]-N-(1,2,4-thiadiazol-5-yl)benzenesulfonamide] | 1600 | ~17200
466 | 4440 | 928 | 5540 | O=C(NCc1cccc(-c2cc(C(F)(F)F)cc(C(F)(F)F)c2)c1)[C@@H]1C[C@H](F)CN1 [Compound 52, (2S,4S)-N-((3′,5′-bis(trifluoromethyl)-[1,1′-biphenyl]-3-yl)methyl)-4-fluoropyrrolidine-2-carboxamide] | 1040 | 4050
173 | 712 | 219 | 5850 | O=C(NCc1cccc(-c2cc(C(F)(F)F)cc(C(F)(F)F)c2)c1)C1CCCC1 [Compound 56, N-({3-[3,5-bis(trifluoromethyl)phenyl]phenyl}methyl)cyclopentanecarboxamide] | 462 | 
> 10000 | > 32000 |  |  | N#Cc1cc(Oc2cc(C(F)(F)F)cc(C(F)(F)F)c2)ccc1S(=O)(=O)Nc1nncs1 [Example 43, 4-[3,5-bis(trifluoromethyl)phenoxy]-2-cyano-N-(1,3,4-thiadiazol-2-yl)benzene-1-sulfonamide] |  | > 32000
